Measured values as given in patent US5760000A (University Technologies International,Inc., priority 1994, dated 1998).
Entries after “also recorded” stand apart in the source; their conditions may differ. Read-outs that look alike come from different tables or passages of the source.

Columns and labels:
[1] = biological target: GnRH receptor (HepG2 membrane preparation); test: GnRH in vitro binding to HepG2 membrane preparation (radioreceptor assay); parameters: species or system human; settings: Labeled ligand 125I-[D-Lys6]-GnRH; 95% confidence interval in parentheses; 4° C.
Description: (§1) Cells were grown to confluence as previously described and harvested from the flasks by using a rubber policeman. The cells were washed in normal assay buffer (([…] Tris[hydroxymethyl] aminomethane[Tris]-HCl), containing 1 mM dithiothreitol and 0.5% BSA [fraction-V] (pH 7.6)) and precipitated by centrifugation at 500g for 5 minutes at 4° C.
(§2) The cleaned cells were homogenized in 50 ml of freshly prepared ice cold 25 mM sucrose in assay buffer containing 1 mM Phenylmethanesulphonyl fluoride and 5 mM Ethylenediaminetetraacetic acid, using a glass TEFLON (polytetra-fluoroethylene) homogenizer, followed by centrifugation at 100 ×g for 5 minutes (4° C.). The supernatant was further centrifuged at 17,000×g for 30 minutes at 4° C., and the pellet (crude membrane preparation) washed briefly and resuspended in the assay buffer (approximately 40-50 μg membrane protein or approximately 1 x 10^6 cell equivalent per 100 μl).
(§3) For protein determination, aliquots of crude membrane preparations were washed twice with double distilled water by centrifugation (25,000 ×g) and assayed for protein content, using BSA as the standard. The binding assay was carried out at 4° C.
(§4) The displacement curves were fitted for both single and two classes of binding sites by computer calculated lines, as described.
(§5) The potency of various GnRH-related peptides in terms of binding (equilibrium dissociation constant; kd) and growth suppression activity in the human hepatocarcinoma derived cell line HepG2 was studied. […] Data analysis was performed as described.
(§6) Homologous displacement of GnRH-related peptides in membrane homogenates prepared from HepG2 cells and non-cancerous postmortem human liver tissue was studied. Values (mean ± SEM) represent specific binding [B/T, bound over total, in %] determined by subtraction of non-saturable binding in the presence of excess peptides (10^-5 M). Results were obtained from 5 to 7 separated experiments, each carried out in triplicate. The binding data were analyzed by computerized Scatchard analysis (LIGAND) according to Munson and Rodbard.

[2] = biological target: GnRH binding sites (normal human liver); test: GnRH in vitro binding to non-cancerous postmortem human liver membrane preparation; settings: Labeled ligand 125I-[D-Lys6]-GnRH; 95% confidence interval in parentheses; read-out: Receptor Binding Activity (Kd, nM) Normal Human Liver
Description: as §1, §2
(§7) A similar protocol was used to prepare the membrane from fresh rat and frozen human postmortem liver. In all experiments the final membrane preparation was used in the radioreceptor assay within 45 minutes.
as §3, §4, §6

[3] = biological target: GnRH binding sites (normal rat liver); test: GnRH in vitro binding to normal rat liver membrane preparation; settings: Labeled ligand 125I-[D-Lys6]-GnRH; 95% confidence interval in parentheses; read-out: Receptor Binding Activity (Kd, nM) Normal Rat Liver
Description: as §1, §2, §7, §3, §4

[4] = tested on: HepG2 cells; test: HepG2 cell proliferation (cell counting); format: cell-based
Description: (§8) HepG2 or HuH-7 cells were maintained in 75-cm^2 flasks at 37° C. under a humidified atmosphere of 5% CO2 in modified Minimum Essential Medium (Gibco-BRL) supplemented with 10% fetal bovine serum, 200mM 1-Glutamine (1%), Penicillin (1000 IU/ml), streptomycin (100 μg/ml) and sodium bicarbonate (0.15%). Cells grown to confluence were harvested following mild trypsinization and wash (twice by slow centrifugation; 400 g for 10 minutes) in normal culture medium.
(§9) Approximately 50,000 cells in 1.0 ml culture media were plated in 24 deep well plates (Flacon). This time was considered day -1. Cells were allowed to grow for one day. The growing cells were then treated with various hormones (at day 0) prepared aseptically in culture media immediately prior to addition. The final volume was maintained at 1 ml. The plates were then incubated at 37° C. for a period of 4 to 6 days, as described above.
(§10) Cells in each well were harvested by removal of culture media and incubation with 0.5 ml 0.25% trypsin and 1.75 mM EDTA for 30 minutes at 37° C. Cells were then transferred into 1.5 ml microfuge tubes and centrifuged at 100g for 10 minutes. The supernatant was removed and the pellet was resuspended in a final volume of 200 μl of culture media containing 10% trypan blue.
Cells were then counted using a hemocytometer. The average cell mortality was less than 5.0% and was not different among different treatment groups. Each value represents the mean and standard error of several experiments (n>3), each carried out in quadruplicate incubations at each time point and hormone concentration.
as §5
The effect of GnRH-related peptides on the proliferation of the human hepatoma derived cell line HepG2 was studied. Values (mean ± SEM) represent the percent change with respect to initial cell number at day 0 over a period of six days in culture.
The dose response curves were analyzed by a computerized, four parameter curve fitting program (ALLFIT) as described. The result of time-related response on cell proliferation was analyzed using a two-way ANOVA with multiple comparison means of using computerized statistical package (SYSTAT).

[5] = tested on: HepG2 cells; test: 3H-thymidine uptake in HepG2 cells; format: cell-based, human
Description: (§11) […] 3H-thymidine (Amersham TRK.120, 102 mCi/mg) was added to each well and was incubated at 37° C. for 4 hours. The media containing unabsorbed 3H-thymidine was aspired off and the cells were washed twice with ice cold phosphate buffered saline (PBS). The cells were then fixed with 5% trichloro acetic acid (TCA) for 20 minutes and washed twice with double distilled water. The fixed cells were solubilized with 0.2 ml NCS tissue solubilizer (Amersham) and counted for radioactivity using a liquid scintillation counter (50% efficiency).
The effect of GnRH-related peptides on ^3 H-thymidine incorporation was tested to assess changes in DNA synthesis of HepG2 cells (FIGS. 7A and 7B). Methods used were as previous described.

[6] = tested on: HuH-7 cells; test: HuH-7 cell proliferation; format: cell-based, human; settings: single administration at 10^-7 M, six days in culture
Description: as §8, §9, §10
Cells were then counted using a hemocytometer. […]

[7] = tested on: HuH-7 cells; test: 3H-thymidine uptake in HuH-7 cells; format: cell-based, human; settings: 10^-7 M, time-related
Description: as §11

SMILES: CC(C)C[C@H](NC(=O)[C@@H](CCCCN)NC(=O)[C@H](Cc1ccc(O)cc1)NC(=O)[C@H](CO)NC(=O)[C@H](Cc1c[nH]c2ccccc12)NC(=O)[C@H](Cc1c[nH]cn1)NC(=O)[C@@H]1CCC(=O)N1)C(=O)N[C@@H](CCCNC(=N)N)C(=O)N1CCC[C@H]1C(=O)NCC(N)=O [[D-Lys^6]-GnRH, pGlu-His-Trp-Ser-Tyr-DLys-Leu-Arg-Pro-Gly-NH2]
- Kd [1]: 9.17 nM
- Kd [2]: 3300 nM
- Kd [3]: 769 nM
- Suppression of HepG2 growth ED50 [4]: 2.00 nM
- HepG2 doubling time ([4]; 10 nM, calculated over 4 days of growth): 65 ± 4.9 h
- HepG2 doubling time ([4]; 100 nM, calculated over 4 days of growth): 77 ± 6.7 h
- HepG2 doubling time ([4]; 1000 nM, growth phase, over 4 days of growth): 105 ± 10.0 h
- Effect on HepG2 cell proliferation, repeated administration ([4]; 10^-7 M every two days, six days in culture): significantly suppressed
- Reversal of HepG2 growth suppression after removing the peptide or adding GnRH antagonist ([4]; after three days of treatment): can not be reversed; also recorded: cannot be reversed
- Suppression of HepG2 growth ED50 ([4]; calculated at day 4 of growth): 2.00 ± 0.9 nM
- Effect on HepG2 cell proliferation ([4]; single administration at 10^-7 M, six days in culture): significantly suppressed
- 3H-thymidine incorporation in HepG2 cells ([5]; 10^-7 M, over 4 days of incubation): blocked further ^3 H-thymidine incorporation above the day 1 level
- ED50, inhibition of DNA synthesis (3H-thymidine incorporation) in HepG2 cells ([5]; after 72 hours in culture): 0.18 ± 0.03 nM
- ED50, inhibition of DNA synthesis (3H-thymidine incorporation) in HepG2 cells ([5]; after 96 hours in culture): 0.14 ± 0.02 nM
- Effect on HuH-7 cell proliferation [6]: significantly suppressed; also recorded: totally inhibited
- 3H-thymidine incorporation in HuH-7 cells [7]: blocked further ^3 H-thymidine incorporation above day 1 level
